Source: patent publication US11607458B2 (Georgia State University Research Foundation, Inc, priority 2017, dated 2023)

Columns and labels:
[1] = Determination of the lactonization rate constants (k1) by HPLC; format: physicochemical; conditions: for Lactonization rate constant k1: r.t., PBS (15% DMSO)
Protocol: General procedure for the determination of the lactonization rate constants. To a 9 mL PBS in a 20-mL vial was added a solution of the respective tetrazine prodrug (500 μL, 500 μM). Then 1 mL of the respective alkyne (50 mM in DMSO) was added to afford a final concentration of 5 mM in PBS (15% DMSO). The reaction was stirred at r.t. Every 30 min about 500 μL the reaction mixture was taken out and 20 μL of them was injected into the HPLC by an autosampler; the rest of them was poured back to the reaction mixture. The reaction rate constant, k1, was determined by fitting the area in HPLC chromatogram of the intermediate versus time using eq. 3: Y=A exp(−k1t) eq. 3 where Y is the intermediate areas, and t is the time.

[2] = Release of the parent drug (Dox / dansyl amine) from prodrugs treated with alkynes, monitored by HPLC; format: physicochemical; conditions: r.t, PBS 10% DMSO
Protocol: (§1) Standard curve of Dox concentration measurement. To four HPLC vials containing 0.9 mL PBS (size: 1.5 mL) were added 25, 15, 20, 10 μL Dox stock solution (1 mM) respectively. Then defined amounts DMSO (975, 985, 980, and 990 μL) were added to each vial to afford final concentration of four vials were 25, 15, 20, 10 μM in PBS (10% DMSO), respectively. The samples were analyzed with HPLC method A. Dox retention time: 4.0 min.
as §1, with “for DA” for “of Dox”, “B. DA” for “A. Dox”, “5.8” for “4.0”
General procedures HPLC studies of reaction kinetics. To three 20-ml vials with 9 mL PBS were added a solution of tetrazine prodrug (500 μL, 500 μM). 350 μL, 300 μL and 250 μL DMSO were added to vial respectively, and then 150 μL, 200 μL and 250 μL of the alkyne solution (50 mM in DMSO) were added to the vials to afford final concentrations of alkyne 0.75 mM, 1 mM and 1.25 mM in PBS (10% DMSO, 25 μM prodrug) respectively. The reaction was stirred at r.t or 37° C. respectively. Every 30 min about 500 μL reaction mixtures were taken out and 20 μL of them were injected into the HPLC by the autosampler; the rest of them were poured back to the reaction mixture. (Note: In the cases of prodrugs 1d or 1b reacting with alkyne 2d at 37° C., the final concentrations of 2d in the kinetic studies were 250 μM, 300 μM and 350 μM).
Results. The results from the reaction kinetics studies of the tetrazine-cyclooctyne system are summarized below in Table 4. Prodrugs 1d or 1b (25 μM) were treated with alkynes 2d, 2c ,2a, or 2b at different concentrations at room temperature (r.t.) or 37° C., respectively. The prodrug consumption and release of the parent drug were monitored by HPLC (Table 4).

[3] = alkyne 2c, no intermediates observed by HPLC

Compound | Lactonization rate constant k1 ([1]; alkyne 2a 5 mM, Exp 2) [h⁻¹] | Lactonization rate constant k1 ([1]; alkyne 2a 5 mM, Expt 1) [h⁻¹] | Lactonization rate constant k1 ([1]; alkyne 2a 5 mM, Expt. 3) [h⁻¹] | k1 at r.t (lactonization) ([1]; alkyne 2a, n = 3) [h⁻¹] | Lactonization rate constant k1 ([1]; alkyne 2b 5 mM, Exp 2) [h⁻¹] | Lactonization rate constant k1 ([1]; alkyne 2b 5 mM, Expt 1) [h⁻¹] | Lactonization rate constant k1 ([1]; alkyne 2b 5 mM, Expt. 3) [h⁻¹] | k1 at r.t (lactonization) ([1]; alkyne 2b, n = 3) [h⁻¹] | k1 at r.t (lactonization) [1, 3] | Time of the Dox peak (in brackets in the Dox Peak % cell) ([2]; alkyne 2a) [h] | Time of the Dox peak (in brackets in the Dox Peak % cell) ([2]; alkyne 2b) [h] | Time of the Dox peak (in brackets in the Dox Peak % cell) ([2]; alkyne 2c) [h] | Time of the Dox peak (in brackets in the Dox Peak % cell) ([2]; alkyne 2d) [h] | Lactonization rate constant k1 ([1]; alkyne 2d 5 mM, Exp 2) [h⁻¹] | Lactonization rate constant k1 ([1]; alkyne 2d 5 mM, Expt 1) [h⁻¹] | Lactonization rate constant k1 ([1]; alkyne 2d 5 mM, Expt. 3) [h⁻¹] | k1 at r.t (lactonization) ([1]; alkyne 2d, n = 3) [h⁻¹]
C#CCOc1ccc(-c2nnc(C(=O)NC3CC(OC4CC(O)(C(=O)CO)Cc5c(O)c6c(c(O)c54)C(=O)c4c(OC)cccc4C6=O)OC(C)C3O)nn2)cc1 (stereo not drawn) [1b] | 0.206 | 0.185 | 0.229 | 0.21 ± 0.04 | 0.179 | 0.223 | 0.196 | 0.20 ± 0.04 | too fast to detect | 19 | 18 | 21 | 48 |  |  |  | 
COc1cccc2c1C(=O)c1c(O)c3c(c(O)c1C2=O)CC(O)(C(=O)CO)CC3OC1CC(NC(=O)c2nnc(-c3ccc(OCc4cn(CCCCCCCCC[P+](c5ccccc5)(c5ccccc5)c5ccccc5)nn4)cc3)nn2)C(O)C(C)O1 (stereo not drawn) [1c] |  |  |  |  | 0.191 | 0.225 | 0.265 | 0.22 ± 0.05 |  |  | 18 |  |  |  |  |  | 
C#CCOc1ccc(-c2nnc(C(=O)NCCCOCCOCCOCCCNS(=O)(=O)c3cccc4c(N(C)C)cccc34)nn2)cc1 [1d] |  |  |  |  | 0.184 | 0.162 | 0.142 | 0.16 ± 0.04 | too fast to detect |  | 16 | 20 | 48 | 0.0291 | 0.0253 | 0.0332 | 0.029 ± 0.006
